Activity calls are given as the source filed them. The rule behind the calls is not given here.
Columns and labels:
MDA-MB-231 [1] = assay: Cytotoxicity against human MDA-MB-231 cells assessed as apoptotic nuclei at 1.5 uM by DAPI staining based fluorescence microscopic analysis (reference value: 11.11 to 14.29%); type: functional
MDA-MB-231 [2] = assay: Cell cycle arrest in human MDA-MB-231 cells assessed as accumulation at sub G1 phase at IC50 measured after 48 hrs by propidium iodide staining based FACS analysis (reference value: 0.7+/-0.2 %); type: functional
[3] = Downregulation of cyclinB1 protein expression in human MDA-MB-231cells assessed as fold change in cyclin B1 expression at IC50 after 48 hrs by Western blot analysis relative to control; type: functional
MDA-MB-231 [4] = assay: Induction of apoptosis in human MDA-MB-231 cells assessed as necrotic cells at IC50 by Annexin V/FITC-propidium iodide staining-based flow cytometric method (reference value: 4.5 +/- 0.5 %); type: functional
MCF7 = assay: Cytotoxicity against human MCF7 cells assessed as reduction in cell viability incubated for 48 hrs by MTT assay; type: functional, cell-based; details: Homo sapiens, MCF7, 48 h; read-out: IC50
MDA-MB-231 [5] = assay: Cytotoxicity against human MDA-MB-231 cells assessed as apoptotic nuclei at 2.5 uM by DAPI staining based fluorescence microscopic analysis (reference value: 11.11 to 14.29%); type: functional
MDA-MB-231 [6] = assay: Induction of apoptosis in human MDA-MB-231 cells assessed as early apoptotic cells at IC50 by Annexin V/FITC-propidium iodide staining-based flow cytometric method (reference value: 7.1 +/- 0.4 %); type: functional
MDA-MB-231 [7] = assay: Genotoxicity in human MDA-MB-231 cells assessed as induction of DNA damage at 2 uM incubated for 24 hrs by comet assay; type: functional, cell-based
[8] = Upregulation of p21 protein expression in human MDA-MB-231cells assessed as fold change in p21 expression at IC50 after 48 hrs by Western blot analysis relative to control; type: functional
MDA-MB-231 [9] = assay: Induction of apoptosis in human MDA-MB-231 cells assessed as upregulation of Bax level by measuring fold change in Bax expression by Western blot analysis relative to control; type: functional
MDA-MB-231 [10] = assay: Cytotoxicity against human MDA-MB-231 cells assessed as normal nuclei at 2 uM by DAPI staining based fluorescence microscopic analysis (reference value: 85.71 to 95.83%); type: functional
MDA-MB-231 [11] = assay: Cell cycle arrest in human MDA-MB-231 cells assessed as accumulation at G2/M phase at IC50 measured after 48 hrs by propidium iodide staining based FACS analysis (reference value: 30.8+/-1.6 %); type: functional
MDA-MB-231 [12] = assay: Induction of apoptosis in human MDA-MB-231 cells assessed as viable cells at IC50 by Annexin V/FITC-propidium iodide staining-based flow cytometric method (reference value: 87.2 +/- 0.7 %); type: functional
[13] = Downregulation of Cdc25A protein expression in human MDA-MB-231cells assessed as fold change in Cdc25A expression at IC50 after 48 hrs by Western blot analysis relative to control; type: functional
MDA-MB-231 [14] = assay: Induction of apoptosis in human MDA-MB-231cells assessed as downregulation of Bcl-xl level by measuring fold change in Bcl-xl expression by Western blot analysis relative to control; type: functional
MDA-MB-231 [15] = assay: Cytotoxicity against human MDA-MB-231 cells assessed as normal nuclei at 2.5 uM by DAPI staining based fluorescence microscopic analysis (reference value: 85.71 to 88.89%); type: functional
MDA-MB-231 [16] = assay: Cytotoxicity against human MDA-MB-231 cells assessed as reduction in cell survival by clonogenic assay; type: functional, cell-based
[17] = Downregulation of NFkappaB protein expression in human MDA-MB-231cells assessed as fold change in NF-kB expression at IC50 after 48 hrs by Western blot analysis relative to control; type: functional
MDA-MB-231 [18] = assay: Cytotoxicity against human MDA-MB-231 cells assessed as normal nuclei at 1 uM by DAPI staining based fluorescence microscopic analysis (reference value: 85.71 to 95.83%); type: functional
MDA-MB-231 [19] = assay: Cell cycle arrest in human MDA-MB-231 cells assessed as accumulation at S phase at IC50 measured after 48 hrs by propidium iodide staining based FACS analysis (reference value: 9.2+/-0.3 %); type: functional
MDA-MB-231 [20] = assay: Cytotoxicity against human MDA-MB-231 cells assessed as normal nuclei at 0.5 uM by DAPI staining based fluorescence microscopic analysis (reference value: 85.71 to 88.89%); type: functional
[21] = Downregulation of CDC6 protein expression in human MDA-MB-231cells assessed as fold change in CDC6 expression at IC50 after 48 hrs by Western blot analysis relative to control; type: functional
MDA-MB-231 [22] = assay: Cell cycle arrest in human MDA-MB-231 cells assessed as accumulation at G1 phase at IC50 measured after 48 hrs by propidium iodide staining based FACS analysis (reference value: 59.3+/-2.9 %); type: functional
MDA-MB-231 [23] = assay: Cytotoxicity against human MDA-MB-231 cells assessed as apoptotic nuclei at 1 uM by DAPI staining based fluorescence microscopic analysis (reference value: 4.17 to 14.29%); type: functional
[24] = Upregulation of p53 protein expression in human MDA-MB-231cells assessed as fold change in p53 expression at IC50 after 48 hrs by Western blot analysis relative to control; type: functional
MDA-MB-231 [25] = assay: Cytotoxicity against human MDA-MB-231 cells assessed as apoptotic nuclei at 2 uM by DAPI staining based fluorescence microscopic analysis (reference value: 4.17 to 14.29%); type: functional
MCF-10A = assay: Cytotoxicity against human MCF-10A cells; type: cell-based
[26] = Cytotoxicity against human H357 cells assessed as reduction in cell viability incubated for 48 hrs by MTT assay; type: functional, cell-based; details: Homo sapiens, H357, 48 h; read-out: IC50
MDA-MB-231 [27] = assay: Cytotoxicity against human MDA-MB-231 cells assessed as reduction in cell viability incubated for 48 hrs by MTT assay; type: functional, cell-based; details: Homo sapiens, MDA-MB-231, 48 h; read-out: IC50
MDA-MB-231 [28] = assay: Cytotoxicity against human MDA-MB-231 cells assessed as increase in deformation and shrinkage of nuclei by DAPI staining-based fluorescence microscopic analysis; type: functional, cell-based; details: dose 0.5-2.5 µM
HEK-293T = assay: Cytotoxicity against human HEK293T cells assessed as reduction in cell viability incubated for 48 hrs by MTT assay; type: cell-based
MDA-MB-231 [29] = assay: Cytotoxicity against human MDA-MB-231 cells assessed as normal nuclei at 1.5 uM by DAPI staining based fluorescence microscopic analysis (reference value: 85.71 to 88.89%); type: functional
[30] = Upregulation of cyclinD1 protein expression in human MDA-MB-231cells assessed as fold change in cyclin D1 expression at IC50 after 48 hrs by Western blot analysis relative to control; type: functional
MDA-MB-231 [31] = assay: Cytotoxicity against human MDA-MB-231 cells assessed as apoptotic nuclei at 0.5 uM by DAPI staining based fluorescence microscopic analysis (reference value: 11.11 to 14.29%); type: functional
MDA-MB-231 [32] = assay: Induction of apoptosis in human MDA-MB-231cells as increase in cleaved PARP1 level by measuring fold change in cleaved PARP1 expression by Western blot analysis relative to control; type: functional
MDA-MB-231 [33] = assay: Induction of apoptosis in human MDA-MB-231 cells assessed as late apoptotic cells at IC50 by Annexin V/FITC-propidium iodide staining-based flow cytometric method (reference value: 1.2 +/- 0.3 %); type: functional

Compound	Activity (MDA-MB-231 [1])	Activity (MDA-MB-231 [2])	fold change (FC) [3]	Activity (MDA-MB-231 [4])	IC50 (MCF7)	Activity (MDA-MB-231 [5])	Activity (MDA-MB-231 [6])	Activity (MDA-MB-231 [7])	fold change (FC) [8]	fold change (FC) (MDA-MB-231 [9])	Activity (MDA-MB-231 [10])	Activity (MDA-MB-231 [11])	Activity (MDA-MB-231 [12])	fold change (FC) [13]	fold change (FC) (MDA-MB-231 [14])	Activity (MDA-MB-231 [15])	IC50 (MDA-MB-231 [16])	fold change (FC) [17]	Activity (MDA-MB-231 [18])	Activity (MDA-MB-231 [19])	other results
CN(C1=CC(=O)c2ccccc2C1=O)c1ccccc1	30.77%	7.9%	0.4	20.7%	1500 nM	78.57%	22.3%	Active	2.3	2.5	43.59%	24.6%	52.2%	0.3	0.8	21.43%	1200 nM	0.7	72.22%	27.1%	Activity (MDA-MB-231 [20]): 83.33%; fold change (FC) [21]: 0.5; Activity (MDA-MB-231 [22]): 40.4%; Activity (MDA-MB-231 [23]): 27.78%; fold change (FC) [24]: 2.5; Activity (MDA-MB-231 [25]): 56.41%; IC50 (MCF-10A): 86000 nM; IC50 [26]: 2000 nM; IC50 (MDA-MB-231 [27]): 2000 nM; Activity (MDA-MB-231 [28]): Dose-Dependent Effect; IC50 (HEK-293T): 3500 nM; Activity (MDA-MB-231 [29]): 69.23%; fold change (FC) [30]: 1.5; Activity (MDA-MB-231 [31]): 16.67%; fold change (FC) (MDA-MB-231 [32]): 0.9; Activity (MDA-MB-231 [33]): 4.8%
COc1cccc(NC2=CC(=O)c3ccccc3C2=O)c1	48.72%	11.8%	0.3	18.5%	2000 nM	80.95%	26.1%	Active	2.1	1.6	45.45%	23.3%	50.1%	0.4	0.6	19.05%	1500 nM	0.7	63.89%	20.2%	Activity (MDA-MB-231 [20]): 82.05%; fold change (FC) [21]: 0.4; Activity (MDA-MB-231 [22]): 44.7%; Activity (MDA-MB-231 [23]): 36.11%; fold change (FC) [24]: 2.1; Activity (MDA-MB-231 [25]): 54.55%; IC50 (MCF-10A): 90000 nM; IC50 [26]: 2100 nM; IC50 (MDA-MB-231 [27]): 2100 nM; Activity (MDA-MB-231 [28]): Dose-Dependent Effect; IC50 (HEK-293T): 4500 nM; Activity (MDA-MB-231 [29]): 51.28%; fold change (FC) [30]: 1.8; Activity (MDA-MB-231 [31]): 17.95%; fold change (FC) (MDA-MB-231 [32]): 0.3; Activity (MDA-MB-231 [33]): 5.3%
